Laboratory results published in ChEMBL document CHEMBL5108065 (J Med Chem, 2022).
Values after ≈ are worked out from the molar mass of the structure shown. Active and inactive are the calls of the source. The rule behind the calls is not given here.

Legend:
HepG2 = assay: Cytotoxicity against human HepG2 cells assessed reduction in cell viability; assay type: toxicity, cell-based
[1] = Solubility of the compound in FeSSIF; assay type: physicochemical; settings: simulated gi fluid
[2] = Lipophilicity, log D of the compound; assay type: physicochemical; settings: octanol/water
Plasmodium falciparum [3] = assay: Antimalarial activity against blood stage Plasmodium infected in NSG mouse model assessed as parasite recrudescence by measuring parasitemia at 50 mg/kg, po measured 60 days by flow cytometry; assay type: functional, organism-based; settings: time 60.0 day
Plasmodium falciparum [4] = assay: Resistance development in asexual blood stage Plasmodium falciparum Dd2-B2 assessed as minimum inoculum of resistance at 3 times IC50 measured on day 30 using at 2 x 10^7 inoculum by SYBR dye based flow cytometry; assay type: functional, organism-based; settings: time 30.0 day
[5] = Drug metabolism in human hepatocytes assessed as (S)-6-(2-chloro-3-((6-cyclopropylpyridin-3-yl)amino)phenyl)-2-imino-6-methyltetrahydropyrimidin-4(1H)-one metabolite formation; assay type: ADME, cell-based, Hepatocyte
[6] = Drug metabolism in dog hepatocytes assessed as (S)-6-(2-chloro-3-((6-cyclopropylpyridin-3-yl)amino)phenyl)-2-imino-6-methyl-3-((2S,4S)-2-methyltetrahydro-2H-pyran-4-yl)tetrahydropyrimidin-4(1H)-one metabolite formation; assay type: ADME, cell-based, Canis lupus familiaris, Hepatocyte
[7] = AUC in Han Wistar rat at 1000 mg/kg, po administered every other day for 7 days; assay type: ADME, organism-based; parameters: dose 1000 mg/kg, time 7 day, route po; settings: in vivo, 168 h
[8] = Toxicity in Han Wistar rat assessed as effect on photopic amplitude at 1000 mg/kg, po administered every other day for 7 days by ERG analysis; assay type: organism-based; settings: in vivo, 168 h, time 7 day
Plasmodium falciparum [9] = assay: Antimalarial activity against Plasmodium falciparum PH1263-C harbouring Pf-crt mutated loci assessed as inhibition of parasite growth pretreated for 48 hrs followed by [3H]-hypoxanthine addition measured after 24 hrs by scintillation counting method; assay type: functional, organism-based
[10] = Cardiotoxicity in anesthetized guinea-pig assessed as QRS widening at 90 nM; assay type: toxicity, Cavia porcellus; settings: 0.09 µM
[11] = Volume of distribution at steady state in Cynomolgus monkey blood at 1 mg/kg, iv measured at 2 to 72 hrs by LC-MS/MS analysis; assay type: ADME, organism-based, Macaca fascicularis; settings: whole blood, time 2-72 hrs, read-out: Vdss
[12] = Genotoxicity in Han Wistar rat by ames assay; assay type: toxicity
Plasmepsin X = Plasmepsin X (Plasmodium falciparum (isolate 3D7), UniProt Q8IAS0); assay: Inhibition of PMX in Plasmodium falciparum 3D7 HA epitope
Sequence of Plasmepsin X (Q8IAS0 whole entry): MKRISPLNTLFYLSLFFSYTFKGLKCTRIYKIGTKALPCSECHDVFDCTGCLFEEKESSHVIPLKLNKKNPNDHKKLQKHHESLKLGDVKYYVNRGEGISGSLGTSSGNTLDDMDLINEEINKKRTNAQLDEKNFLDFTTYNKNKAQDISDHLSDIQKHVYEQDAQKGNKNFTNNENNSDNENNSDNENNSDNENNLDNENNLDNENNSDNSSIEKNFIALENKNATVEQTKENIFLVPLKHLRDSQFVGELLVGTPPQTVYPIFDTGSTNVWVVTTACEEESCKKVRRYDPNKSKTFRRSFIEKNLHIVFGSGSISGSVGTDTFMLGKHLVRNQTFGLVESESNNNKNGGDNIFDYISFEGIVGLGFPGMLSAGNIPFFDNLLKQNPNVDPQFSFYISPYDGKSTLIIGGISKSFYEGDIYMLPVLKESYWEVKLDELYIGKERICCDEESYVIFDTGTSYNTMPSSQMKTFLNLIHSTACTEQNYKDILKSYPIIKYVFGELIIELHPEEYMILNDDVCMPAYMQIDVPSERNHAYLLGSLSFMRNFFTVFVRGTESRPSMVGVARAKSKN

Compound | IC50 (HepG2) | solubility [1] | logD [2] | Activity (Plasmodium falciparum [3]) | Activity (Plasmodium falciparum [4]) | Drug metabolism [5] | Drug metabolism [6] | AUC [7] | Activity [8] | IC50 (Plasmodium falciparum [9]) | Activity [10] | Vd [11] | Activity [12] | IC50 (Plasmepsin X)
C[C@H]1C[C@@H](N2C(=N)N[C@](C)(c3cccc(Nc4ccc(C5CC5)nc4)c3Cl)CC2=O)CCO1 | 16 µM | 960 µM (≈ 449 µg/mL) | 2.5 | Active | Active | Metabolite_Detected | Metabolite_Detected |  |  |  |  |  |  | 
C[C@H]1C[C@@H](N2C(=N)N[C@](C)(c3cccc(NC(=O)c4cccc(C#N)c4)c3Cl)CC2=O)CCO1 |  |  |  |  |  |  |  | 2182 µM·h | Non-Toxic | 18 nM | Non-Toxic | 3.07 L/kg | Non-Toxic | 7 nM
